This note sets out measurements from patent US20210115018A1, “PIPERIDINE COMPOUNDS AS COVALENT MENIN INHIBITORS” (THE REGENTS OF THE UNIVERSITY OF MICHIGAN, priority 2018, published 2021).

One experiment addresses T1, menin protein (Homo sapiens, UniProt O00255).
T1 sequence (O00255 1-610): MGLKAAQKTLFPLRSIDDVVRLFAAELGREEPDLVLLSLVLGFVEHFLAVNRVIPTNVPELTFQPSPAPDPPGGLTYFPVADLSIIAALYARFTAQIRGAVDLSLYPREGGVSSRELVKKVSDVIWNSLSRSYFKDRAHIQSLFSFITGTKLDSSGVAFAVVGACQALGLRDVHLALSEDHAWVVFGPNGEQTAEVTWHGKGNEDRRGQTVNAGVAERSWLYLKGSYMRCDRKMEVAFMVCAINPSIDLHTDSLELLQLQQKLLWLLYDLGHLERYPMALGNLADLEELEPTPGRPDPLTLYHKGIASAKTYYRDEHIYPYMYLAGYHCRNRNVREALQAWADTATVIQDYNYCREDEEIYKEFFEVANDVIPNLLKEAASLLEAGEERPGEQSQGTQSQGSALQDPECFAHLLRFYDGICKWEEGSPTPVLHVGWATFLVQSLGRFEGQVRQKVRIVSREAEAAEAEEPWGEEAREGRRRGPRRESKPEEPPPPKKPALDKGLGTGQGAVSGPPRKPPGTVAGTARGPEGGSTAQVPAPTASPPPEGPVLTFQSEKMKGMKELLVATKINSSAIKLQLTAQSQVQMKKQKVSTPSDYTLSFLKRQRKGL
The experiment can be described thus: Fluorescence polarization (FP) competitive binding assay, menin binding affinity. Particulars: FP competition with FAM-MM2 probe 2 nM, menin 4 nM, 30 minutes room temperature. The gist of the method: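 Competitive FP with FAM-labeled MLL1 peptide probe FAM-MM2 (2 nM) and menin (4 nM) in PBS, 0.02% bovine γ-globulin, 4% DMSO, 0.01% Triton X-100. After 30 min at room temperature, mP read at 485/530 nm; IC50 from nonlinear regression against probe-only and complex-only controls.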

Another experiment has as its system MOLM13. The experiment can be described thus: 7-day proliferation assay (WST-8), cell growth inhibition. Format: cell-based. Particulars: Homo sapiens, MOLM-13, 168 h, MOLM13 cells, 7 days. The gist of the method: (§1)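 Cells seeded at 2,000-3,000/well were exposed to serially diluted compound for 7 days at 37° C., 5% CO2. Viability was read by WST-8 absorbance at 450 nm after 1-2 h color development; readings normalized to DMSO-treated cells, IC50 by four-parameter nonlinear regression.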

A further experiment concerns MV4-11. Described as above. Type of experiment: cell-based. The settings on record: Homo sapiens, MV4-11, 168 h, MV4-11 cells, 7 days. The gist of the method: as §1

For orientation: IC50 means the concentration that inhibits the measured activity by half. Consider `C/C=C/S(=O)(=O)N1CCCC[C@@H](S(=O)(=O)c2ccc(N3CC(F)(CN4CCC([C@@](CN5CCC5)(c5cccc(F)c5)[C@H]5CCC[C@@H]5NC(=O)OC)CC4)C3)cc2)C1` [compound 233], for which the IC50 was 3 nM at menin protein, under 500 nM in the experiment with MOLM13 and under 100 nM with MV4-11.
